Reference: article PMC11546786, “Designing Analogs of SAAP-148 with Enhanced Antimicrobial and Anti-LPS Activities” (International Journal of Molecular Sciences, 2024)
Ends that are not written are not given here.

Columns and labels:
[1] = Reversed-phase HPLC retention time as measure of peptide hydrophobicity; assay type: physicochemical; details: retention time by reverse-phase HPLC, reflects hydrophobicity difference between analogues
five bacterial strains = assay: MICs against all five bacterial strains (geometric mean, range); assay type: cell-based; parameters: unit not given here; details: geometric mean of MICs against all five bacterial strains
Method in brief: (§1)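 Modified CLSI broth microdilution: mid-log bacteria from LB culture were adjusted to 1 × 10^6 CFU/mL and mixed 1:1 with peptide serially diluted in PBS. After 18 to 20 h at 37 °C, growth was read as absorbance at 600 nm.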

[2] = test system: Klebsiella pneumonia (1.1736); assay type: cell-based, Klebsiella pneumoniae
Description: The LL-37, SAAP-148 and its analogues peptides were synthesized according to the standard Fmoc procedure. The Fmoc-protected resin and monomers are first treated with a basic solvent (piperidine) to remove the amino protecting groups. The carboxyl group of the next amino acid is activated by an activator. The activated monomer reacts with the free amino group to form a peptide bond. These two steps are repeated in a cycle until the synthesis is complete. After synthesis, the peptide is eluted from the column and purified by reverse-phase semipreparative high-performance liquid chromatography as detailed in Table 1. The peptides were dissolved in PBS to create a 1000 μmol/L stock solution for subsequent use. The purity of the synthetic peptide exceeded 95%. Blood samples from healthy donors were obtained from the Fifth Medical Center of Chinese PLA General Hospital (Beijing, China). Human normal lung epithelial cells (BEAS-2B) and mouse mononuclear macrophages cells (RAW 264.7) were sourced from Beyotime Biotechnology (Beijing, China), along with the Enhanced Cell Counting Kit-8 (CCK-8) and nitric oxide detection kit. RPMI-1640 and DMEM were procured from Merck (Darmstadt, Germany), while FBS was obtained from ExCell Bio (Shanghai, China). LPS-B5 (from E. coli 055:B5) was procured from Invivogen (Toulouse, France). Five bacterial strains, including Escherichia coli (1.8732), Pseudomonas aeruginosa (1.2421), Klebsiella pneumonia (1.1736) as Gram-negative bacteria, and Staphylococcus aureus (1.8721) and Staphylococcus epidermidis (1.4260) as Gram-positive bacteria, were procured from the China General Microbiological Culture Collection Centre (CGMCC) (Beijing, China).
The antibacterial activities of the peptides against […] were evaluated using a modified version of the Clinical Laboratory and Standards Institute (CLSI) broth microdilution method, as previously described. Briefly, the bacteria were cultured in liquid LB medium (comprising 10 g/L tryptone, 5 g/L yeast extract, and 10 g/L NaCl) at 37 °C until reaching mid-log phase. Subsequently, the bacterial concentration was adjusted to 1 × 10^6 colony-forming units (CFU)/mL. The peptides were then diluted serially with phosphate-buffered saline (PBS), followed by the addition of 50 μL of the diluted peptides to 50 μL of the bacterial suspension in a 96-well plate (Corning Inc., Lowell, MA, USA). After incubating at 37 °C for 18 to 20 h, the absorbance of each well was measured using a multi-well microplate reader (SpectraMax M5; Molecular Devices, Sunnyvale, CA, USA) at 600 nm.

[3] = test system: Gram-negative bacteria (E. coli, P. aeruginosa, K. pneumoniae); assay: Geometric mean of MICs against Gram-negative bacteria; assay type: cell-based; parameters: unit not given here
Method in brief: as §1

S. aureus = assay: Membrane damage, PI staining and flow cytometry; assay type: cell-based, Staphylococcus aureus; details: 6.25 μM peptide, 30 min
Experimental: Propidium iodide (PI) was utilized as a marker for assessing the structural integrity of cell membranes and the occurrence of cell death. The impact of peptides on BEAS-2B cells, E. coli, and S. aureus was investigated by treating the cells with peptides followed by PI staining and flow cytometry (FACS) analysis to evaluate peptide-induced membrane damage. Table 5 presents the results of PI staining in BEAS-2B cells (1 × 10^6) following treatment with peptides at a concentration of 6.25 μM. […] FACS analysis at a peptide concentration of 6.25 μM was employed to determine the membrane damage caused by peptides in E. coli and S. aureus cells (Table 5).
Peptide-induced membrane damage was evaluated by quantifying the influx of propidium iodide (PI). BEAS-2B cells (1 × 10^6 cells in 50 μL) were exposed to a final concentration of 6.25 μM peptide and incubated at 37 °C for 30 min, followed by PBS washing and re-suspension in PI solution (dissolved in PBS) at a final concentration of 2 μg/mL. Bacteria were cultured to mid-log phase at 37 °C, then diluted to an OD600 of 0.5 in phosphate-buffered saline (PBS). […] The bacteria were harvested and re-suspended in PI solution, with fluorescence signal analysis conducted using flow cytometry (Cytomics FC 500, Beckman Coulter, Indianapolis, IN, USA).

LKRVWKRVFKLKKRYWRQLKKPVR-NH2 [SAAP-7]
Rt [1]: 12.897 min
MIC (GM) (five bacterial strains): 16.49
MIC K. pneumoniae [2]: 100.00 µM
GM to G− [3]: 9.93
percentage of PI-positive cells, S. aureus (S. aureus): 21.1%
